Measurements as given in patent US20220267394A1, “COMPOUNDS FOR INDUCING TISSUE FORMATION AND USES THEREOF” (HISTIDE AG, priority 2015, published 2022).

Tested on: hMSCs
Experiment: Loss of stemness: STRO-1 expression by immunostaining
Type: cell-based, human
Conditions: Table 6, previously reported peptides in solution, 400 ng/mL
Procedure: The cells were first fixed for 20 min with 4% paraformaldehyde/PBS at 4° C. After fixation, the cells were permeabilized in PBS containing 1% Triton X-100 for 15 min. Runx2, Osterix, Stro-1, Vinculin, Phalloidin, Osteopontin, Sox2, Sox9 antibodies were visualized by treating the cells with 1% (v/v) specific monoclonal antibodies for 1 hour at 37° C. Then the samples were incubated with Alexa Fluor® 568 or 647 (F(ab′)2 fragment of IgG(H+L)) during 30 min at room temperature. The cell nuclei were counterstained in 20 ng/mL DAPI for 10 min at room temperature.
For this type of quantification the freeware image analysis ImageJ® software was used. The raw image was first converted to an 8-bit file, and then the unsharp mask feature was used (settings 1:0.2) to remove the image background (rolling ball radius 10). After smoothing, the resulting image, which appears similar to the original photomicrograph but with minimal background, was then converted to a binary image by setting a threshold. Threshold values were determined empirically by selecting a setting, which gave the most accurate binary image for a subset of randomly selected photomicrographs. The cell area was determined by manual delineation on raw fluorescent images. Total contact area and mean contact area per cell were calculated by “analyse particules” in ImageJ®. A minimum of 30 cells per condition were analyzed. Stro-1, CD-34+, and CD-105 expressions were determined using this procedure.
hMSCs were cultured on conventional cell culture plastic plates with or without the presence in the cell culture media of different GFR-binding compounds as described herein (SEQ ID NO: 50 to 88) in solution. […] This was probed by Stro-1 immunostaining after cell fixation as described in the Methods section. The quantification of Stro-1 positive contact numbers and areas was performed as described in the Methods section. A minimum of 30 cells per condition were analyzed. Stro-1 positive marrow cells are multipotential and capable of differentiating into multiple mesenchymal lineages including stromal cells with a phenotype resembling vascular smooth muscle cells that can support hematopoiesis, adipocytes, osteoblasts, and chondrocytes.
Using the method detailed in the description, the RMSD of 57 previously reported peptide sequences have been determined (Table 6) and correlated with the expression of STRO-1 in solution. […] One should note that it is commonly admitted that the expression of STRO-1 in a cell is indicative of a cell that is in a substantially non-differentiated state and the decrease of its expression of at least about 20% is indicative of a cell that has started a process of differentiation but which may not result in the differentiation of the cell. A decrease of more than 50% would be indicative of the presence of a significant shift towards a differentiated state. A decrease of more than 70% would be indicative of the presence of a very important shift towards a differentiated state. A sustained decrease (e.g. for at least 96 h) of more than 50% or 70% would be indicative of the presence of an even more important shift towards a differentiated state.
Likewise, using the method detailed in the description, the RMSD of 75 GFR-binding peptide sequence representatives of the invention have been determined (Table 8) and correlated with the expression of STRO-1. SEQ ID NO: 1 to 49 were tested in combination with a bioactive carrier as defined above in the Examples Section (i.e. titanium, ceramics, collagen, etc. . . . ), whereas SEQ ID NO: 2242 to 2267 were tested in solution.

Substance	STRO-1 expression (%)
2199 (APTQLSAISVL; Peptide reported in US20050250936, SEQ ID NO:71) [compound 2199]	93
2200 (FDSRVLKSAISFKENIIF; Peptide reported in WO2013040142, SEQ ID NO:2935795) [compound 2200]	89
2201 (KIPKPSSAPTELSAISMC; Peptide reported in WO2009151288, SEQ ID NO:7) [compound 2201]	78
2202 (CPKPSSAPTELSAISMLL; Peptide reported in WO2009151288, SEQ ID NO:3) [compound 2202]	79
2203 (TCCVPELSAISMLYLDEN; Peptide reported in US5496552, SEQ ID NO:5) [compound 2203]	84
2204 (KIPKPSSAPTELSAISMLC; Peptide reported in WO2009151288, SEQ ID NO:6) [compound 2204]	82
2205 (KIPKPSSAPTELSAISMLYC; Peptide reported in WO2009151288, SEQ ID NO:5) [compound 2205]	80
2206 (CIPKPSSAPTELSAISMLYL; Peptide reported in WO2009151288, SEQ ID NO:2) [compound 2206]	83
2207 (CKIPKPSSAPTELSAISMLYL; Peptide reported in WO2009151288, SEQ ID NO:1) [compound 2207]	78
2208 (AETLHTLGLSAPVIESAISDAI; Peptide reported in WO2013040142, SEQ ID NO:629725) [compound 2208]	93
2209 (MRTESTPTTASAISYECLWSPPSNEAAKLHFDS; Peptide reported in US20070083334, SEQ ID NO:966410) [compound 2209]	94
2210 (SRVLPIVVQGYVPVQDTKFLGIYYVIGPIIARVILSSSSAISSLNKS; Peptide reported in US20040031072, SEQ ID NO:188005) [compound 2210]	84
2211 (CCAPTELSAISVLYFDDSSNVILKKYRNMVVRACGCR; Comparative sequence) [compound 2211]	81
2212 (CCAPTQLSAISVLYFDDSSNVILKKYRNMVVRACGCR; Comparative sequence) [compound 2212]	82
2213 (KPCCAPTQLSAISVLYFDDSSNVILKKYRNMVVRACGCR; Peptide reported in US20050250936, SEQ ID NO:123) [compound 2213]	80
2214 (KPCCAPTELSAISVLYFDDSSNVILKKYRNMVVRACGCR; Peptide reported in US20050250936, SEQ ID NO:122) [compound 2214]	83

Same assay, conditions: Table 8, SEQ ID NO: 2242 to 2267 tested in solution

Substance	STRO-1 expression (%)
2242 (VPTAASAISILYLDAANNVVLKNYQAAVVE; GFR-binding peptide) [compound 2242]	17
2243 (VPEAASSLSMLFFEIVRKKPIFLKVYPAATVE; GFR-binding peptide) [compound 2243]	19
2244 (VPTVVSAISTLYLRIKPHQGQHLKNYQVVVVE; GFR-binding peptide) [compound 2244]	21
2245 (APTLLNAISMLYFNDKQQIILKKYRLLVVR; GFR-binding peptide) [compound 2245]	22
2246 (APTGGSATSMLYYDKGVVTYLRKHRGGVVK; GFR-binding peptide) [compound 2246]	23
2247 (VPTSSSPISTLYIDKGVVTYLKYHYSSVAE; GFR-binding peptide) [compound 2247]	20
2248 (VPTAAEPISMLYLDEYDKVVKFKYEAAAVS; GFR-binding peptide) [compound 2248]	26
2249 (TPTSSSPINTLYFDDMGVPTYGKIPSSVVD; GFR-binding peptide) [compound 2249]	25
2250 (VPTVVSPISMLYIDDMGVPTYKQYEVVVVE; GFR-binding peptide) [compound 2250]	26
2251 (APVAAKPLSMLYVDKGVVTYDHHKDAAVEE; GFR-binding peptide) [compound 2251]	22
2252 (VPQAAEPLPMLYYDKGVVTYEQLSNAAVRS; GFR-binding peptide) [compound 2252]	19
2253 (VPQQQEPLTTLYYDEYDKVVEQLSNQQVKS; GFR-binding peptide) [compound 2253]	18
2254 (VPTMMSNITTQIMRIKPHQGQHIGEMSMMQHN; GFR-binding peptide) [compound 2254]	19
2255 (SRVAARSVKMAKVGGGGGGGKEVQVAAEEH; GFR-binding peptide) [compound 2255]	31
2256 (VPTDDSATSTLYYDKGVVTYLRKHRDDEHS; GFR-binding peptide) [compound 2256]	27
2257 (VPTGGEPLTTLYYNDKQQIIEQLSNGGEHS; GFR-binding peptide) [compound 2257]	26
2258 (SRVLLRPVQMRKIDKGVVTYKKATVLLEEH; GFR-binding peptide) [compound 2258]	21
2259 (TQVAARPVQTRKIDDMGVPTKKATVAAEDH; GFR-binding peptide) [compound 2259]	23
2260 (VPQRLEPLTILYYDAANNVVEQLSNDMVKS; GFR-binding peptide) [compound 2260]	23
2261 (NDEGLESVPTGQSPISILYIRIKPHQGQHYKQYELEEHSQSESR; GFR-binding peptide) [compound 2261]	17
2262 (HVTKPTSVPTKLSPISILFIDDSSNVIYKQYENMVVESSGSH; GFR-binding peptide) [compound 2262]	18
2263 (ASASPSSAPVDLKPLSMLYVIGKTPKIDHHKDMIVEESKSS; GFR-binding peptide) [compound 2263]	16
2264 (KIPKASSVPQELEPLPIVYYDENEKVVEQLSNDMVRSGSGSR; GFR-binding peptide) [compound 2264]	24
2265 (AVPKASSVPQKLEPLTILYYDSSNNVIEQLSNNMVKSASGSH; GFR-binding peptide) [compound 2265]	21
2266 (RVPSTSSAPVKTSNITMQIMDNGRVLLLGEMSMIVEESGSL; GFR-binding peptide) [compound 2266]	22
2267 (ASASPSSVSQDLRSVKVAKVIGKTPKIKEVQVMIVKSSKSS; GFR-binding peptide) [compound 2267]	34
